Results from the supplement of paper PMC10627819.

Columns and labels:
S. aureus DSM 20231 [1] = test: fitness (endpoint OD595 vs no drug) (fraction); higher = more growth
Method in brief: (§1)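 Plates with 384 wells were inoculated at OD595 0.01 using 30 µl of TSB, LB Lennox or CY, or 55 µl for S. pneumoniae. Incubation was at 37 °C, with OD595 measured every 30 min for 14 h. Fitness is the stationary-phase transition optical density over the robust mean of no-drug control wells, after first-reading background subtraction; it is capped at 1.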

S. aureus Newman [2] = test: as above
Method in brief: as §1

B. subtilis 168 = test: Bliss interaction score (quartile over a dose matrix) (fitness difference); higher = more antagonism (negative = synergy)
Method in brief: (§2)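 Each OD595 reading at entry into stationary phase was scaled to the robust mean of the untreated wells on its plate, with a ceiling of 1. These ratios define fitness, and single-drug fitness was inferred from combinations. The Bliss score compares observed fitness with the product-based expectation and is reported as quartiles across all replicate types, technical, biological and donor/recipient.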

S. aureus DSM 20231 [3] = test: as above
Method in brief: as §2

S. aureus Newman [4] = test: as above
Method in brief: as §2

S. pneumoniae D39V = test: as above
Method in brief: as §2
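For Bliss interaction score (quartile over a dose matrix) in this document: first quartile when negative (synergy) and third quartile when positive (antagonism).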

CC[C@H]1OC(=O)[C@H](C)[C@@H](O[C@H]2C[C@@](C)(OC)[C@@H](O)[C@H](C)O2)[C@H](C)[C@@H](O[C@@H]2O[C@H](C)C[C@H](N(C)C)[C@H]2O)[C@](C)(O)C[C@@H](C)CN(C)[C@H](C)[C@@H](O)[C@]1(C)O [Azithromycin] + CCCCCCCCCC(=O)N[C@@H]1[C@H]([C@@H]([C@H](O[C@H]1OC2=C3C=C4C=C2OC5=C(C=C(C=C5)[C@H]([C@H]6C(=O)N[C@@H](C7=C(C(=CC(=C7)O)OC8[C@H]([C@H]([C@@H]([C@H](O8)CO)O)O)O)C9=C(C=CC(=C9)[C@H](C(=O)N6)NC(=O)[C@@H]4NC(=O)[C@@H]1C2=CC(=CC(=C2)OC2=C(C=CC(=C2)[C@H](C(=O)N[C@H](CC2=CC(=C(O3)C=C2)Cl)C(=O)N1)N)O)O)O)C(=O)O)O[C@H]1[C@@H]([C@H]([C@@H]([C@H](O1)CO)O)O)NC(=O)C)Cl)CO)O)O [Teicoplanin]
fitness, main component drawn
Settings	partner 0.1562 µg/mL	partner 0.3125 µg/mL	partner 0.625 µg/mL
S. aureus DSM 20231 [1], first compound 0.125 µg/mL	0.915	0.924	0.991
S. aureus DSM 20231 [1], first compound 0.25 µg/mL	0.935	0.987	≥ 1
S. aureus Newman [2], first compound 0.125 µg/mL	0.899	0.928	≥ 1
S. aureus Newman [2], first compound 0.25 µg/mL	0.978	0.974	0.775

fitness, S. aureus Newman [2], one replicate, main component drawn
Settings	first compound 0.125 µg/mL	first compound 0.25 µg/mL	first compound 0.5 µg/mL
partner 0.62 µg/mL	0.799	0.998	0.863
partner 1.24 µg/mL	0.786	0.812	0.896
partner 2.48 µg/mL	0.57	0.55	0.579

main component drawn
Settings	Bliss interaction score
B. subtilis 168	-0.0653
S. aureus DSM 20231 [3]	0.104
S. aureus Newman [4]	0.169
S. pneumoniae D39V	0.0706

CC[C@H]1OC(=O)[C@H](C)[C@@H](O[C@H]2C[C@@](C)(OC)[C@@H](O)[C@H](C)O2)[C@H](C)[C@@H](O[C@@H]2O[C@H](C)C[C@H](N(C)C)[C@H]2O)[C@](C)(O)C[C@@H](C)CN(C)[C@H](C)[C@@H](O)[C@]1(C)O [Azithromycin] + CN[C@H](CC(C)C)C(=O)N[C@H]1C(=O)N[C@@H](CC(N)=O)C(=O)N[C@H]2C(=O)N[C@H]3C(=O)N[C@H](C(=O)N[C@H](C(=O)O)c4cc(O)cc(O)c4-c4cc3ccc4O)[C@H](O)c3ccc(c(Cl)c3)Oc3cc2cc(c3O[C@@H]2O[C@H](CO)[C@@H](O)[C@H](O)[C@H]2O[C@H]2C[C@](C)(N)[C@H](O)[C@H](C)O2)Oc2ccc(cc2Cl)[C@H]1O [Vancomycin]
fitness
Settings	partner 0.1875 µg/mL	partner 0.375 µg/mL	partner 0.75 µg/mL
S. aureus DSM 20231 [1], first compound 0.125 µg/mL	0.846	0.875	0.898
S. aureus DSM 20231 [1], first compound 0.25 µg/mL	0.819	0.874	0.829
S. aureus Newman [2], first compound 0.125 µg/mL	0.909	0.906	0.882
S. aureus Newman [2], first compound 0.25 µg/mL	0.855	0.893	0.862

Settings	Bliss interaction score
B. subtilis 168	-0.0288
S. aureus DSM 20231 [3]	0.0943
S. aureus Newman [4]	-0.104
S. pneumoniae D39V	-0.0427

CC[C@H]1OC(=O)[C@H](C)[C@@H](O[C@H]2C[C@@](C)(OC)[C@@H](O)[C@H](C)O2)[C@H](C)[C@@H](O[C@@H]2O[C@H](C)C[C@H](N(C)C)[C@H]2O)[C@](C)(O)C[C@@H](C)CN(C)[C@H](C)[C@@H](O)[C@]1(C)O [Azithromycin] + CO/N=C(\C(=O)N[C@@H]1C(=O)N2C(C(=O)[O-])=C(C[N+]3(C)CCCC3)CS[C@H]12)c1csc(N)n1 [Cefepime]
fitness
Settings	first compound 0.125 µg/mL	first compound 0.25 µg/mL	first compound 0.5 µg/mL
S. aureus DSM 20231 [1], partner 0.125 µg/mL	0.842	0.858	–
S. aureus DSM 20231 [1], partner 0.25 µg/mL	0.818	0.838	–
S. aureus DSM 20231 [1], partner 0.5 µg/mL	0.833	0.843	0.565
S. aureus Newman [2], partner 0.125 µg/mL	0.872	0.927	0.752
S. aureus Newman [2], partner 0.25 µg/mL	0.799	0.872	0.669
S. aureus Newman [2], partner 0.5 µg/mL	0.794	0.809	0.551

Settings	Bliss interaction score
B. subtilis 168	0.0866
S. aureus DSM 20231 [3]	0.103
S. aureus Newman [4]	0.0874
S. pneumoniae D39V	0.112

CC[C@H]1OC(=O)[C@H](C)[C@@H](O[C@H]2C[C@@](C)(OC)[C@@H](O)[C@H](C)O2)[C@H](C)[C@@H](O[C@@H]2O[C@H](C)C[C@H](N(C)C)[C@H]2O)[C@](C)(O)C[C@@H](C)CN(C)[C@H](C)[C@@H](O)[C@]1(C)O [Azithromycin] + Cn1nnc(-c2ccc(-c3ccc(N4C[C@H](CO)OC4=O)cc3F)cn2)n1 [Tedizolid]
fitness
Settings	first compound 0.125 µg/mL	first compound 0.25 µg/mL	first compound 0.5 µg/mL
S. aureus DSM 20231 [1], partner 0.0625 µg/mL	0.887	0.765	–
S. aureus DSM 20231 [1], partner 0.125 µg/mL	0.7	0.667	0.294
S. aureus DSM 20231 [1], partner 0.25 µg/mL	0.165	0.231	0.0821
S. aureus Newman [2], partner 0.0625 µg/mL	0.867	0.818	–
S. aureus Newman [2], partner 0.125 µg/mL	0.744	0.644	–

Settings	Bliss interaction score
B. subtilis 168	-0.0935
S. aureus DSM 20231 [3]	-0.0615
S. aureus Newman [4]	-0.14
S. pneumoniae D39V	0.0648

CC[C@H]1OC(=O)[C@H](C)[C@@H](O[C@H]2C[C@@](C)(OC)[C@@H](O)[C@H](C)O2)[C@H](C)[C@@H](O[C@@H]2O[C@H](C)C[C@H](N(C)C)[C@H]2O)[C@](C)(O)C[C@@H](C)CN(C)[C@H](C)[C@@H](O)[C@]1(C)O [Azithromycin] + O=C(N[C@H](CO)[C@H](O)c1ccc([N+](=O)[O-])cc1)C(Cl)Cl [Chloramphenicol]
fitness
Settings	first compound 0.125 µg/mL	first compound 0.25 µg/mL	first compound 0.5 µg/mL
S. aureus DSM 20231 [1], partner 0.75 µg/mL	0.703	0.657	0.29
S. aureus DSM 20231 [1], partner 1.5 µg/mL	0.544	0.366	0.139
S. aureus DSM 20231 [1], partner 3 µg/mL	0.155	0.113	0.0604
S. aureus Newman [2], partner 0.75 µg/mL	0.76	0.692	0.461
S. aureus Newman [2], partner 1.5 µg/mL	0.515	0.527	0.253
S. aureus Newman [2], partner 3 µg/mL	–	0.2	0.109

Settings	Bliss interaction score
B. subtilis 168	-0.116
S. aureus DSM 20231 [3]	-0.153
S. aureus Newman [4]	-0.101
S. pneumoniae D39V	0.0336

Cc1onc(-c2ccccc2)c1C(=O)N[C@@H]1C(=O)N2[C@@H]1SC(C)(C)[C@@H]2C(=O)O [Oxacillin] + CCCCCCCCCC(=O)N[C@@H]1[C@H]([C@@H]([C@H](O[C@H]1OC2=C3C=C4C=C2OC5=C(C=C(C=C5)[C@H]([C@H]6C(=O)N[C@@H](C7=C(C(=CC(=C7)O)OC8[C@H]([C@H]([C@@H]([C@H](O8)CO)O)O)O)C9=C(C=CC(=C9)[C@H](C(=O)N6)NC(=O)[C@@H]4NC(=O)[C@@H]1C2=CC(=CC(=C2)OC2=C(C=CC(=C2)[C@H](C(=O)N[C@H](CC2=CC(=C(O3)C=C2)Cl)C(=O)N1)N)O)O)O)C(=O)O)O[C@H]1[C@@H]([C@H]([C@@H]([C@H](O1)CO)O)O)NC(=O)C)Cl)CO)O)O [Teicoplanin]
fitness, main component drawn
Settings	first compound 0.0156 µg/mL	first compound 0.0312 µg/mL	first compound 0.0625 µg/mL
S. aureus DSM 20231 [1], partner 0.1562 µg/mL	0.833	0.743	0.492
S. aureus DSM 20231 [1], partner 0.3125 µg/mL	0.877	0.811	0.485
S. aureus DSM 20231 [1], partner 0.625 µg/mL	0.813	0.693	0.541
S. aureus Newman [2], partner 0.1562 µg/mL	0.746	0.702	0.595
S. aureus Newman [2], partner 0.3125 µg/mL	0.732	0.708	0.596
S. aureus Newman [2], partner 0.625 µg/mL	0.721	0.65	–

fitness, S. aureus Newman [2], one replicate, main component drawn
Settings	first compound 0.0156 µg/mL	first compound 0.0312 µg/mL	first compound 0.0625 µg/mL
partner 0.62 µg/mL	0.603	0.638	0.534
partner 1.24 µg/mL	0.668	0.596	0.351
partner 2.48 µg/mL	0.429	0.16	0.143

main component drawn
Settings	Bliss interaction score
B. subtilis 168	-0.0735
S. aureus DSM 20231 [3]	0.062
S. aureus Newman [4]	-0.0741
S. pneumoniae D39V	-0.0582
